Measured values taken from patent US20040248913A1, “(Pyridinyl and pyrimidyl) trienoic acid derivatives as retinoid x receptor modulators” (priority 2001, published 2004).

Molecular target: T1, RXRα:PPARγ heterodimer (Homo sapiens, UniProt P19793)
T1 construct: expressed in transfected cells; host or cells: CV-1 cells
T1 sequence (P19793 1-462): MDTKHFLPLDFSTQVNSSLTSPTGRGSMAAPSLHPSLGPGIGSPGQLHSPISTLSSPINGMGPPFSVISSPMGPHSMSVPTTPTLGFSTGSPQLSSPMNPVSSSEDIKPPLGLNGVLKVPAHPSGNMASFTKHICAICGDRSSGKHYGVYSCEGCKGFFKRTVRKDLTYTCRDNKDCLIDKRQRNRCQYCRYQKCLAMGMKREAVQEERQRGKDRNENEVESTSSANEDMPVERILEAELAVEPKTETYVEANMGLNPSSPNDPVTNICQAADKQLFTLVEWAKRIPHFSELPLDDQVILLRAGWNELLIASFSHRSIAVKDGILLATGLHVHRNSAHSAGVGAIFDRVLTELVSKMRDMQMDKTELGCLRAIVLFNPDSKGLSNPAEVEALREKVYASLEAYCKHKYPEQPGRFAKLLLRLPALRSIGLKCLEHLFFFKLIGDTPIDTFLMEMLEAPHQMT
T1 sequence (P37231 1-505 partner): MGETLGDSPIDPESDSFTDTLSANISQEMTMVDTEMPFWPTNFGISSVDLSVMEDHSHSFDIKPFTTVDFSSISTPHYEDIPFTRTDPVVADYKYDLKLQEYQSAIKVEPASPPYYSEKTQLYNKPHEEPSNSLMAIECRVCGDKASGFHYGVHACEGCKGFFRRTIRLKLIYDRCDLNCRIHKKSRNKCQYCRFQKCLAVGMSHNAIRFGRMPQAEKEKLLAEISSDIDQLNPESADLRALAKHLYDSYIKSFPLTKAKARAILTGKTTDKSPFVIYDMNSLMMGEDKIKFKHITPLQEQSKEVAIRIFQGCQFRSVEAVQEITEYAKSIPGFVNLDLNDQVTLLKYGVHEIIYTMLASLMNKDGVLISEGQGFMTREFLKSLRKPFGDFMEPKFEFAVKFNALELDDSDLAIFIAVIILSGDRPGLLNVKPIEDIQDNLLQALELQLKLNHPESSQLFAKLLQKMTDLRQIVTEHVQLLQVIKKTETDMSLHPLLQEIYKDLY
Assay: RXR:PPARγ heterodimer cotransfection assay in CV-1 cells
Assay type: cell-based
Settings: for Synergy Efficacy (%): maximal response in presence of 100 nM BRL49653 relative to response of BRL49653 alone; for Agonist Efficacy (%): maximal response relative to response of the thiazolidinedione BRL49653
Text: In the co-transfection assay, cloned cDNA for one or more IRs (e.g., human RARα, RXRα, or PPARγ), alone or in combination (i.e. for heterodimer assays) under the control of a constitutive promoter (e.g., the SV 40, RSV or CMV promoter) is introduced by transfection (a procedure to introduce exogenous genes into cells) into a background cell substantially devoid of endogenous IRs. These introduced gene(s) direct the recipient cells to make the IR protein(s) of interest. A further gene is also introduced (co-transfected) into the same cells in conjunction with the IR gene(s). This further gene, comprising the cDNA for a reporter protein, such as firefly luciferase (LUC), controlled by an appropriate hormone responsive promoter containing a hormone response element (HRE). This reporter plasmid functions as a reporter for the transcriptional-modulating activity of the target IR(s). Thus, the reporter acts as a surrogate for the products (mRNA then protein) normally expressed by a gene under control of the target receptor(s) and their native hormone(s).
The compounds of the present invention were further tested for activity on RXR heterodimers with RARα, RARγ or PPARγ utilizing the cotransfection assay in CV-1 cells as described in Example 6A. The RXR:RAR heterodimer cotransfection assays utilized the following expression plasmids and reporter plasmid: pRShRARα (10 ng/well, Giguere et al., Nature, 330:624 (1987) the disclosure of which is herein incorporated by reference) or pRShRARγ (10 ng/well, Ishikawa et al., Mol. Endocrin., 4:837 (1990) the disclosure of which is herein incorporated by reference) with Δ-MTV-LUC (50 ng/well, Hollenberg and Evans, Cell, 55:899 (1988), the disclosure of which is herein incorporated by reference) containing an RARE which is referred to as two copies of the TRE-palindromic response element described in Umesono et al., Nature, 336:262 (1988), the disclosure of which is herein incorporated by reference. For the RSR:PPARγ heterodimer cotransfection assay, the RXRα receptor expression plasmid, pRShRXRα (10 ng/well), was cotrasfected with the PPARγ expression plasmid, pCMVhPPARγ (10 ng/well), and a reporter plasmid containing three copies of a PPARγ response element (pPREA3-tk-LUC, 50 ng/well; Mukherjee et al., Journ. Biol. Chem., 272:8071-8076 (1997) and references cited therein, the disclosures of which are herein incorporated by reference).
Cotransfections were performed as described in Example 6A. […] Antagonist efficacy and IC50 values were determined as in Example 6A.
Compounds of the present invention were also tested for the ability to synergize with an RAR or PPARγ agonist in the context of an RXR heterodimer. For these assays the compounds were added to the cells with a fixed concentration of TTNPB (1×10^−9 M) for RXR:RAR heterodimer assay or BRL 49633 (1×10^−7 M) for the RXR:PPARγ heterodimer assay. Efficacy of the compounds of the present invention in the agonist and synergy assays was calculated as the maximum response obtained over the range of the dose response curve relative to the maximum response obtained by the reference agonist. Antagonist efficacy was determined as a function (%) of maximal inhibition.
Kliewer et al., Nature 358:771-774 (1992). To examine the effects of the compounds of the present invention on the transcriptional properties of the RXR:PPARγ, a heterodimer cotransfection assay as described above was employed.

Row | Structure (SMILES) | RXR:PPARγ agonist activity alone (in words) (alone) | RXR:PPARγ activity in combination with the PPARγ ligand (in words) (in combination with the PPARγ ligand) | Synergy Efficacy (%) | Agonist Efficacy (%)
1 | CCCCOc1c(\C(C)=C/C=C/C(C)=C/C(=O)O)cc(C(C)C)nc1C(C)C [Example 1, 7-(3-Butoxy-2,6-diisopropyl-pyridin-4-yl)-3-methyl-octa-2(E),4(E),6(Z)-trienoic Acid] | partial agonists | stronger activity | 25 | 11
2 | CCCOc1c(\C(C)=C/C=C/C(C)=C/C(=O)O)cc(C(C)C)nc1C(C)C [Example 2, 7-(2,6-Diisopropyl-3-propoxy-pyridin-4-yl)-3-methyl-octa-2(E),4(E),6(Z)-trienoic Acid] | – | – | 150 | 32
3 | CCOc1c(\C(C)=C/C=C/C(C)=C/C(=O)O)cc(C(C)C)nc1C(C)C [Example 3, 7-(2,6-Diisopropyl-3-ethoxy-pyridin-4-yl)-3-methyl-octa-2(E),4(E),6(Z)-trienoic acid] | – | – | 182 | 42
4 | C/C(=C/C=C/C(C)=C/C(=O)O)c1cc(C(C)C)nc(C(C)C)c1OCC(F)F [Example 4, 7-[3-(2,2-Difluoro-ethoxy)-2,6-diisopropyl-pyridin-4-yl]-3-methyl-octa-2(E),4(E),6(Z)-trienoic acid] | – | – | 233 | 53
5 | C/C(=C/C=C/C(C)=C/C(=O)O)c1cc(C(C)C)nc(C(C)C)c1OCC(F)(F)F [Example 5, 7-[2,6-Diisopropyl-3-(2,2,2-trifluoro-ethoxy)-pyridin-4-yl]-3-methyl-octa-2(E),4(E),6(Z)-trienoic acid] | – | – | 107 | 55
